Molecules are shown by their SMILES.

This experiment has as its system HCT 116 cells transfected with a luciferase reporter under the control of an HIF-responsive sequence. Kind of experiment: HIF-luciferase assay. The class given is cell-based. To be noted: Homo sapiens; HCT 116 HIF-luciferase reporter cells, hypoxia chamber (1% O2), 24 h; in some cases means of up to four individual determinations. The method, boiled down: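 Stably transfected HCT 116 cells carrying an HIF-responsive luciferase reporter were exposed to test substances (0-10 μmol/l) for 24 h under hypoxia (1% O2). Luminescence was read 5 min after Bright Glo addition. Cells kept in normoxia served as background controls.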
With `CNc1ccc(Cn2cc(-c3nc(-c4ccc(C(C)(C)C(F)(F)F)cc4)no3)ccc2=O)cn1` [Example 60, 1-{[6-(Methylamino)pyridin-3-yl]methyl}-5-{3-[4-(1,1,1-trifluoro-2-methylpropan-2-yl)phenyl]-1,2,4-oxadiazol-5-yl}pyridin-2(1H)-one], the IC50 (in general, the concentration needed to halve the response being measured) turned out to be 20 nM.
On to `O=c1ccc(-c2nc(-c3ccc(OC(F)(F)F)cc3)no2)cn1Cc1ccc(NCCCO)nc1` [Example 63, 1-({6-[(3-Hydroxypropyl)amino]pyridin-3-yl}methyl)-5-{3-[4-(trifluoromethoxy)phenyl]-1,2,4-oxadiazol-5-yl}pyridin-2(1H)-one], for which half-maximal inhibition (IC50) was put at 30 nM.
The result for `Cc1ccc(Cn2nc(-c3nc(-c4ccc(OC(F)(F)F)cc4)no3)ccc2=O)cc1` [Example 65, 2-(4-Methylbenzyl)-6-{3-[4-(trifluoromethoxy)phenyl]-1,2,4-oxadiazol-5-yl}pyridazin-3(2H)-one] reads 200 nM; that for `N#CC1CCN(c2cccc(Cn3nc(-c4nc(-c5ccc(OC(F)(F)F)cc5)no4)ccc3=O)c2)CC1` [Example 66, 1-(3-{[6-oxo-3-{3-[4-(trifluoromethoxy)phenyl]-1,2,4-oxadiazol-5-yl}pyridazin-1(6H)-yl]methyl}phenyl)piperidine-4-carbonitrile], 1.5 nM; that for `CNC(=O)c1cccc(Cn2nc(-c3nc(-c4ccc(C(C)(C)C(F)(F)F)cc4)no3)ccc2=O)c1` [Example 70, N-Methyl-3-{[6-oxo-3-{3-[4-(1,1,1-trifluoro-2-methylpropan-2-yl)phenyl]-1,2,4-oxadiazol-5-yl}pyridazin-1(6H)-yl]methyl}benzamide], 60 nM.
In the case of `CC(C)(c1ccc(-c2noc(-c3ccc(=O)n(Cc4cccc(C(=O)NCCCO)c4)n3)n2)cc1)C(F)(F)F` [Example 73, N-(3-Hydroxypropyl)-3-{[6-oxo-3-{3-[4-(1,1,1-trifluoro-2-methylpropan-2-yl)phenyl]-1,2,4-oxadiazol-5-yl}pyridazin-1(6H)-yl]methyl}benzamide] it was 50 nM; in that of `O=C(c1cccc(Cn2nc(-c3nc(-c4ccc(OC(F)(F)F)cc4)no3)ccc2=O)c1)N1CCC1` [Example 74, 2-[3-(Azetidin-1-ylcarbonyl)benzyl]-6-{3-[4-(trifluoromethoxy)phenyl]-1,2,4-oxadiazol-5-yl}pyridazin-3(2H)-one], 10 nM; in that of `O=C(c1cccc(Cn2nc(-c3nc(-c4ccc(OC(F)(F)F)cc4)no3)ccc2=O)c1)N1CC(O)C1` [Example 76, 2-{3-[(3-Hydroxyazetidin-1-yl)carbonyl]benzyl}-6-{3-[4-(trifluoromethoxy)phenyl]-1,2,4-oxadiazol-5-yl}pyridazin-3(2H)-one], 20 nM.
In the case of `O=C(c1cccc(Cn2nc(-c3nc(-c4ccc(OC(F)(F)F)cc4)no3)ccc2=O)c1)N1CCCC1` [Example 78, 2-[3-(Pyrrolidin-1-ylcarbonyl)benzyl]-6-{3-[4-(trifluoromethoxy)phenyl]-1,2,4-oxadiazol-5-yl}pyridazin-3(2H)-one] it was 5 nM; in that of `O=C(c1cccc(Cn2nc(-c3nc(-c4ccc(OC(F)(F)F)cc4)no3)ccc2=O)c1)N1CCCO1` [Example 80, 2-[3-(1,2-Oxazolidin-2-ylcarbonyl)benzyl]-6-{3-[4-(trifluoromethoxy)phenyl]-1,2,4-oxadiazol-5-yl}pyridazin-3(2H)-one], 5 nM.
Consider `O=C(c1cccc(Cn2nc(-c3nc(-c4ccc(OC(F)(F)F)cc4)no3)ccc2=O)c1)N1CCC(O)CC1` [Example 82, 2-{3-[(4-Hydroxypiperidin-1-yl)carbonyl]benzyl}-6-{3-[4-(trifluoromethoxy)phenyl]-1,2,4-oxadiazol-5-yl}pyridazin-3(2H)-one], for which the IC50 was found to be 15 nM.
In the case of `O=C(c1cccc(Cn2nc(-c3nc(-c4ccc(OC(F)(F)F)cc4)no3)ccc2=O)c1)N1CCOCC1` [Example 84, 2-[3-(Morpholin-4-ylcarbonyl)benzyl]-6-{3-[4-(trifluoromethoxy)phenyl]-1,2,4-oxadiazol-5-yl}pyridazin-3(2H)-one] it was 20 nM; in that of `CN1CCN(C(=O)c2cccc(Cn3nc(-c4nc(-c5ccc(C(C)(C)C(F)(F)F)cc5)no4)ccc3=O)c2)CC1` [Example 86, 2-{3-[(4-Methylpiperazin-1-yl)carbonyl]benzyl}-6-{3-[4-(1,1,1-trifluoro-2-methylpropan-2-yl)phenyl]-1,2,4-oxadiazol-5-yl}pyridazin-3(2H)-one], 40 nM.
In turn, `O=C(c1cccc(Cn2nc(-c3nc(-c4ccc(OC(F)(F)F)cc4)no3)ccc2=O)c1)N1CCN(C2CC2)CC1` [Example 87, 2-{3-[(4-Cyclopropylpiperazin-1-yl)carbonyl]benzyl}-6-{3-[4-(trifluoromethoxy)phenyl]-1,2,4-oxadiazol-5-yl}pyridazin-3(2H)-one] returned an IC50 of 5 nM.
For `CC(=O)OC1(c2cccc(Cn3nc(-c4nc(-c5ccc(OC(F)(F)F)cc5)no4)ccc3=O)c2)CC1` [Example 89, 1-(3-{[6-oxo-3-{3-[4-(trifluoromethoxy)phenyl]-1,2,4-oxadiazol-5-yl}pyridazin-1(6H)-yl]methyl}phenyl)cyclopropyl acetate], 5 nM corresponded to half-maximal inhibition (IC50).
The result for `CC(C)(O)Cc1cccc(Cn2nc(-c3nc(-c4ccc(OC(F)(F)F)cc4)no3)ccc2=O)c1` [Example 90, 2-[3-(2-Hydroxy-2-methylpropyl)benzyl]-6-{3-[4-(trifluoromethoxy)phenyl]-1,2,4-oxadiazol-5-yl}pyridazin-3(2H)-one] reads 6 nM; that for `CC(C)(O)Cc1cccc(Cn2nc(-c3nc(-c4ccc(C(C)(C)C(F)(F)F)cc4)no3)ccc2=O)c1` [Example 91, 2-[3-(2-Hydroxy-2-methylpropyl)benzyl]-6-{3-[4-(1,1,1-trifluoro-2-methylpropan-2-yl)phenyl]-1,2,4-oxadiazol-5-yl}pyridazin-3(2H)-one], 40 nM.
Molecule `O=c1ccc(-c2nc(-c3ccc(OC(F)(F)F)cc3)no2)nn1Cc1cccc(C2(CO)CC2)c1` [Example 92, 2-{3-[1-(Hydroxymethyl)cyclopropyl]benzyl}-6-{3-[4-(trifluoromethoxy)phenyl]-1,2,4-oxadiazol-5-yl}pyridazin-3(2H)-one] showed an IC50 of 10 nM.
The result for `CC(C)(c1ccc(-c2noc(-c3ccc(=O)n(Cc4cccc(C5(CO)CC5)c4)n3)n2)cc1)C(F)(F)F` [Example 93, 2-{3-[1-(Hydroxymethyl)cyclopropyl]benzyl}-6-{3-[4-(1,1,1-trifluoro-2-methylpropan-2-yl)phenyl]-1,2,4-oxadiazol-5-yl}pyridazin-3(2H)-one] reads 25 nM; that for `N#CC1CCN(c2cc(Cn3nc(-c4nc(-c5ccc(OC(F)(F)F)cc5)no4)ccc3=O)ccn2)CC1` [Example 94, 1-(4-{[6-oxo-3-{3-[4-(trifluoromethoxy)phenyl]-1,2,4-oxadiazol-5-yl}pyridazin-1(6H)-yl]methyl}pyridin-2-yl)piperidine-4-carbonitrile], 20 nM; that for `CC(C)(c1ccc(-c2noc(-c3ccc(=O)n(Cc4ccnc(N5CCC(C#N)CC5)c4)n3)n2)cc1)C(F)(F)F` [Example 95, 1-(4-{[6-oxo-3-{3-[4-(1,1,1-trifluoro-2-methylpropan-2-yl)phenyl]-1,2,4-oxadiazol-5-yl}pyridazin-1(6H)-yl]methyl}pyridin-2-yl)piperidine-4-carbonitrile], 40 nM.
Take `O=c1ccc(-c2nc(-c3ccc(OC(F)(F)F)cc3)no2)nn1Cc1ccnc(N2CCN(C3CC3)CC2)c1` [Example 96, 2-{[2-(4-Cyclopropylpiperazin-1-yl)pyridin-4-yl]methyl}-6-{3-[4-(trifluoromethoxy)phenyl]-1,2,4-oxadiazol-5-yl}pyridazin-3(2H)-one]: the IC50 stood at 1.5 nM.
`CC(C)(c1ccc(-c2noc(-c3ccc(=O)n(Cc4ccnc(N5CCN(C6CC6)CC5)c4)n3)n2)cc1)C(F)(F)F` [Example 97, 2-{[2-(4-Cyclopropylpiperazin-1-yl)pyridin-4-yl]methyl}-6-{3-[4-(1,1,1-trifluoro-2-methylpropan-2-yl)phenyl]-1,2,4-oxadiazol-5-yl}pyridazin-3(2H)-one] came in with an IC50 of 3 nM.
`CNc1ccc(Cn2nc(-c3nc(-c4ccc(OC(F)(F)F)cc4)no3)ccc2=O)cn1` [Example 100, 2-{[6-(Methylamino)pyridin-3-yl]methyl}-6-{3-[4-(trifluoromethoxy)phenyl]-1,2,4-oxadiazol-5-yl}pyridazin-3(2H)-one] registered an IC50 of 6 nM.
`CNc1ccc(Cn2nc(-c3nc(-c4ccc(C(C)(C)C(F)(F)F)cc4)no3)ccc2=O)cn1` [Example 101, 2-{[6-(Methylamino)pyridin-3-yl]methyl}-6-{3-[4-(1,1,1-trifluoro-2-methylpropan-2-yl)phenyl]-1,2,4-oxadiazol-5-yl}pyridazin-3(2H)-one] displayed an IC50 of 15 nM.
